Results reported in the NIST ThermoML archive (doi:10.1016/j.fluid.2015.12.007).
± gives the expanded uncertainty stated by the source.

Experiment: xn = mol fraction of the nth substance listed
Conditions: 101 kPa, Liquid; for speed of sound: Sing-around technique in a fixed-path interferometer; for mass density: Vibrating tube method

CCCCn1cc[n+](C)c1.COS(=O)(=O)[O-] [1-butyl-3-methylimidazolium methyl sulfate] + CC(O)CO
Conditions	mass density [kg/m3]	speed of sound [m/s]
293.15 K, x1 = 0.0574	1061.11 ± 0.17	1541.9 ± 1.4
293.15 K, x1 = 0.1155	1081.09 ± 0.22	1554.6 ± 1.4
293.15 K, x1 = 0.2102	1107.07 ± 0.33	1573.6 ± 1.6
293.15 K, x1 = 0.3133	1130.01 ± 0.5	1591.4 ± 1.8
293.15 K, x1 = 0.4151	1148.5 ± 0.72	1602.8 ± 2
293.15 K, x1 = 0.5038	1162.16 ± 0.94	1613.5 ± 2.1
293.15 K, x1 = 0.6026	1174.98 ± 1.2	1626 ± 2.4
293.15 K, x1 = 0.6996	1185.85 ± 1.5	1636.8 ± 2.6
293.15 K, x1 = 0.8095	1196.11 ± 2	1649.4 ± 2.8
293.15 K, x1 = 0.9003	1204.12 ± 2.4	1660.2 ± 3
298.15 K, x1 = 0.0574	1057.45 ± 0.17	1528.2 ± 1.4
298.15 K, x1 = 0.1155	1077.45 ± 0.21	1541.1 ± 1.4
298.15 K, x1 = 0.2102	1103.5 ± 0.33	1560.2 ± 1.6
298.15 K, x1 = 0.3133	1126.47 ± 0.5	1578.4 ± 1.8
298.15 K, x1 = 0.4151	1145.03 ± 0.71	1589.9 ± 2
298.15 K, x1 = 0.5038	1158.71 ± 0.93	1600.8 ± 2.1
298.15 K, x1 = 0.6026	1171.59 ± 1.2	1613.1 ± 2.4
298.15 K, x1 = 0.6996	1182.44 ± 1.5	1624.2 ± 2.6
298.15 K, x1 = 0.8095	1192.74 ± 2	1636.8 ± 2.8
298.15 K, x1 = 0.9003	1200.82 ± 2.3	1647.5 ± 3
303.15 K, x1 = 0.0574	1053.78 ± 0.17	1514.5 ± 1.4
303.15 K, x1 = 0.1155	1073.81 ± 0.21	1527.5 ± 1.4
303.15 K, x1 = 0.2102	1099.9 ± 0.33	1546.9 ± 1.6
303.15 K, x1 = 0.3133	1122.94 ± 0.5	1565.2 ± 1.8
303.15 K, x1 = 0.4151	1141.57 ± 0.71	1577.1 ± 2
303.15 K, x1 = 0.5038	1155.27 ± 0.92	1588.2 ± 2.1
303.15 K, x1 = 0.6026	1168.22 ± 1.2	1600.5 ± 2.4
303.15 K, x1 = 0.6996	1179.05 ± 1.5	1611.8 ± 2.6
303.15 K, x1 = 0.8095	1189.38 ± 1.9	1624.5 ± 2.8
303.15 K, x1 = 0.9003	1197.47 ± 2.3	1635 ± 3
308.15 K, x1 = 0.0574	1050.08 ± 0.16	1500.8 ± 1.4
308.15 K, x1 = 0.1155	1070.14 ± 0.21	1513.9 ± 1.4
308.15 K, x1 = 0.2102	1096.3 ± 0.32	1533.6 ± 1.6
308.15 K, x1 = 0.3133	1119.41 ± 0.49	1552.2 ± 1.8
308.15 K, x1 = 0.4151	1138.1 ± 0.7	1564.4 ± 2
308.15 K, x1 = 0.5038	1151.85 ± 0.92	1575.8 ± 2.1
308.15 K, x1 = 0.6026	1164.85 ± 1.2	1588.2 ± 2.4
308.15 K, x1 = 0.6996	1175.66 ± 1.5	1599.6 ± 2.6
308.15 K, x1 = 0.8095	1186.03 ± 1.9	1612.3 ± 2.8
308.15 K, x1 = 0.9003	1194.14 ± 2.3	1622.9 ± 3
313.15 K, x1 = 0.0574	1046.36 ± 0.16	1487.1 ± 1.4
313.15 K, x1 = 0.1155	1066.46 ± 0.21	1500.4 ± 1.4
313.15 K, x1 = 0.2102	1092.68 ± 0.32	1520.3 ± 1.6
313.15 K, x1 = 0.3133	1115.88 ± 0.49	1539.2 ± 1.8
313.15 K, x1 = 0.4151	1134.64 ± 0.7	1551.8 ± 2
313.15 K, x1 = 0.5038	1148.44 ± 0.91	1563.4 ± 2.1
313.15 K, x1 = 0.6026	1161.48 ± 1.2	1576 ± 2.4
313.15 K, x1 = 0.6996	1172.29 ± 1.5	1587.6 ± 2.6
313.15 K, x1 = 0.8095	1182.71 ± 1.9	1600.3 ± 2.8
313.15 K, x1 = 0.9003	1190.84 ± 2.3	1610.9 ± 3
318.15 K, x1 = 0.0574	1042.62 ± 0.16	1473.6 ± 1.4
318.15 K, x1 = 0.1155	1062.78 ± 0.21	1487.1 ± 1.4
318.15 K, x1 = 0.2102	1089.06 ± 0.32	1507.4 ± 1.6
318.15 K, x1 = 0.3133	1112.34 ± 0.48	1526.4 ± 1.8
318.15 K, x1 = 0.4151	1131.18 ± 0.69	1539.2 ± 2
318.15 K, x1 = 0.5038	1145.05 ± 0.91	1551.5 ± 2.1
318.15 K, x1 = 0.6026	1158.11 ± 1.2	1563.8 ± 2.4
318.15 K, x1 = 0.6996	1168.92 ± 1.5	1576 ± 2.6
318.15 K, x1 = 0.8095	1179.39 ± 1.9	1588.5 ± 2.8
318.15 K, x1 = 0.9003	1187.56 ± 2.3	1599 ± 3
